Like-named read-outs stand apart in the source and are kept apart here.
Legend:
TGFβRI kinase ALK5 = TGFβRI kinase ALK5 (Homo sapiens (Human), UniProt P36897); test: Inhibition of TGFβRI kinase ALK5 activity (TGFβRI kinase assay kit, ADP-Glo); format: biochemical; conditions: ATP 50 μM; read-out: IC50 of inhibition effect on TGFβRI kinase ALK5 activity
Procedure: The inhibition effect of TGFβRI kinase activity in vitro was determined by the following method.
The inhibition effect of the compounds of the present invention on TGFβRI kinase ALK5 activity was determined by the following experimental method:
TGFβRI kinase assay kit (V4093, Promega) was used to assay enzyme activity. 2 μl of enzyme solution (the final concentration of enzyme in the reaction system was 2 ng/μL) formulated with reaction buffer (40 mM Tris pH 7.5, 20 mM MgCl2, 0.1 mg/ml BSA), 1 μl of a 3-fold gradient dilution of the compounds dissolved in 5% DMSO, and 2 μl of a mixed solution of ATP and TGFβRI substrate peptide (the final concentration of ATP was 50 μM, and the final concentration of substrate was 0.2 μg/μL) were added successively to a 384-well plate (4514, Corning). After reaction at 27° C. for 2.5 hours, 5 μl of ADP-Glo solution in the kit was added to each well, then the plate was placed at 27° C. for 40 minutes. 10 μl of kinase assay reagent was then added to each well, then the plate was placed at 27° C. for 30 minutes. The chemiluminescence signal values were measured with a Victor 3 (PerkinElmer) multi-function microplate reader. The IC50 values of the compounds for enzyme inhibition were calculated using Graphpad prism software based on each concentration of the compound and the corresponding signal value thereof.

[1] = tested on: Smad signaling pathway of TGFβRI; test: Inhibition of Smad signaling pathway of TGFβRI (3TP-lux luciferase reporter in HepG2 cell); format: cell-based; conditions: Homo sapiens, read-out: IC50 on the inhibition of Smad signaling pathway of TGFβRI
Procedure: The inhibition effect of the compounds of the present invention on Smad signaling pathway of TGFβRI was determined by the following in vitro test.
The inhibition effect of the compounds of the present invention on Smad signaling pathway of TGFβRI was determined by the following experimental method:
The seeding density is 2.5×10^4 cells/well. The cells were incubated overnight at 37° C., 5% CO2. Each well was replaced with fresh EMEM medium containing 10% FBS. […] The cells were further incubated for 24 hours at 37° C., 5% CO2. Each well was replaced with 90 μL of EMEM medium containing 0.5% FBS, then the cells were starved for 6 hours. The compounds were formulated as a 20 mM stock solution, which was diluted in gradient to a 400× concentration with 100% DMSO, and further 40-fold diluted with EMEM containing 0.5% FBS. The cell culture plate was taken out, then 10 μl of diluted compound or control (0.25% DMSO) was added to each well respectively. The plate was shaken gently, then incubated for 18 hours in an incubator at 37° C., 5% CO2. Finally, 100 μl of detection reagent ONE-Glo™ Luciferase Assay (E6110, Promega) was added to each well, and the plate was placed in dark at room temperature for 10 minutes. The chemiluminescence signal values were measured with a Victor 3.0 (PerkinElmer). The IC50 values of the compounds were calculated using Graphpad Prism software based on each concentration of the compound and the corresponding signal value thereof.

[2] = HepG2 cell, 3TP-lux plasmid, 18 hours

Chain of TGFβRI kinase ALK5 (P36897 34-503): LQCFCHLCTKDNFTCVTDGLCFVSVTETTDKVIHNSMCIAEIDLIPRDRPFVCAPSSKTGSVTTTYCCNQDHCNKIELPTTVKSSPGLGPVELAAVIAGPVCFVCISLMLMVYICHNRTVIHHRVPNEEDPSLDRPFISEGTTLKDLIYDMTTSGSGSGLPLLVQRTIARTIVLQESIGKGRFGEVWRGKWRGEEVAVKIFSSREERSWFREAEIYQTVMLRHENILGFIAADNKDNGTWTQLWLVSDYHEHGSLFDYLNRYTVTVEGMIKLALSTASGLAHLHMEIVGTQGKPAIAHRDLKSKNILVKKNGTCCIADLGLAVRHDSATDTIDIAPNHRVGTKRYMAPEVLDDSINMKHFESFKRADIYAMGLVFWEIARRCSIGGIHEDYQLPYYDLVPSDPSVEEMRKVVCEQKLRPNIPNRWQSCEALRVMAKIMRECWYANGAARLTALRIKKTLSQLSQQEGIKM

Structure (SMILES) | IC50 (TGFβRI kinase ALK5) [µM] | IC50 [1, 2] [µM] | IC50 ([1]; HepG2, 18 h) [µM]
Cc1cccc(-c2nc3n(c2-c2ccc4nnc(C(N)=O)n4c2)[C@@H]2CC[C@H]3C2)n1 [Example 2-2, 6-((5R,8S)-2-(6-Methylpyridin-2-yl)-5,6,7,8-tetrahydro-5,8-methanoimidazo[1,2-a]pyridin-3-yl)[1,2,4]triazolo[4,3-a]pyridine-3-carboxamide] | 0.003 | 0.036 | 
Cc1cccc(-c2nc3n(c2-c2ccnc(-c4ccc(S(C)(=O)=O)cc4)c2)C2CCC3C2)n1 (centres unmarked) [Example 3, 2-(6-Methylpyridin-2-yl)-3-(2-(4-(methylsulfonyl)phenyl)pyridin-4-yl)-5,6,7,8-tetrahydro-5,8-methanoimidazo[1,2-a]pyridine] |  | 0.058 | 
Cc1cccc(-c2nc3n(c2-c2ccnc(NCCO)c2)C2CCC3C2)n1 (centres unmarked) [Example 5, 2-((4-(2-(6-Methylpyridin-2-yl)-5,6,7,8-tetrahydro-5,8-methanoimidazo[1,2-a]pyridin-3-yl)pyridin-2-yl)amino)ethanol] | 0.059 | 0.039 | 
Cc1cccc(-c2nc3n(c2-c2ccnc(NCCO)c2)[C@H]2CC[C@@H]3C2)n1 [Example 5-1, 2-((4-((5S,8R)-2-(6-Methylpyridin-2-yl)-5,6,7,8-tetrahydro-5,8-methanoimidazo[1,2-a]pyridin-3-yl)pyridin-2-yl)amino)ethanol] | 0.046 |  | 0.075
Cc1cccc(-c2nc3n(c2-c2ccnc(-c4ccc(S(N)(=O)=O)cc4)c2)[C@H]2CC[C@@H]3C2)n1 [Example 13-1, 4-(4-((5S,8R)-2-(6-Methylpyridin-2-yl)-5,6,7,8-tetrahydro-5,8-methanoimidazo[1,2-a]pyridin-3-yl)pyridin-2-yl)benzenesulfonamide] | 0.011 | 0.037 | 
Cc1cccc(-c2nc3n(c2-c2ccnc(Nc4ccc(S(N)(=O)=O)cc4)c2)C2CCC3C2)n1 (centres unmarked) [Example 14, 4-((4-(2-(6-Methylpyridin-2-yl)-5,6,7,8-tetrahydro-5,8-methanoimidazo[1,2-a]pyridin-3-yl)pyridin-2-yl)amino)benzenesulfonamide] | 0.031 |  | 0.081
Cc1cccc(-c2nc3n(c2-c2ccc4nccc(OC5CCNCC5)c4c2)C2CCC3C2)n1 (centres unmarked) [Example 15, 2-(6-Methylpyridin-2-yl)-3-(4-(piperidin-4-yloxy)quinolin-6-yl)-5,6,7,8-tetrahydro-5,8-methanoimidazo[1,2-a]pyridine] | 0.06 |  | 
Cc1cccc(-c2nc3n(c2-c2ccnc(-c4ccc(C(=O)NC5CCOCC5)cc4)c2)C2CCC3C2)n1 (centres unmarked) [Example 17, 4-(4-(2-(6-Methylpyridin-2-yl)-5,6,7,8-tetrahydro-5,8-methanoimidazo[1,2-a]pyridin-3-yl)pyridin-2-yl)-N-(tetrahydro-2H-pyran-4-yl)benzamide] | 0.038 |  | 
Cc1cccc(-c2nc3n(c2-c2ccnc(NC[C@H](C)O)c2)[C@H]2CC[C@@H]3C2)n1 [Example 18-1, (S)-1-((4-((5S,8R)-2-(6-Methylpyridin-2-yl)-5,6,7,8-tetrahydro-5,8-methanoimidazo[1,2-a]pyridin-3-yl)pyridin-2-yl)amino)propan-2-ol] | 0.08 | 0.088 | 
Cc1cccc(-c2nc3n(c2-c2ccnc(-c4ccc(C(=O)O)cc4)c2)C2CCC3C2)n1 (centres unmarked) [Example 19, 4-(4-(2-(6-Methylpyridin-2-yl)-5,6,7,8-tetrahydro-5,8-methanoimidazo[1,2-a]pyridin-3-yl)pyridin-2-yl)benzoic acid] | 0.087 |  | 
Cc1cccc(-c2nc3n(c2-c2ccc(=O)n(C)c2)C2CCC3C2)n1 (centres unmarked) [Example 20, 1-Methyl-5-(2-(6-methylpyridin-2-yl)-5,6,7,8-tetrahydro-5,8-methanoimidazo[1,2-a]pyridin-3-yl)pyridin-2(1H)-one] |  | 0.053 | 
Cc1cccc(-c2nc3n(c2-c2ccnc(OCCO)c2)C2CCC3C2)n1 (centres unmarked) [Example 26, 2-((4-(2-(6-Methylpyridin-2-yl)-5,6,7,8-tetrahydro-5,8-methanoimidazo[1,2-a]pyridin-3-yl)pyridin-2-yl)oxy)ethanol] |  | 0.086 | 
Cc1cccc(-c2nc3n(c2-c2ccnc4ccc(C(N)=O)cc24)C2CCC3C2)n1 (centres unmarked) [Example 29, 4-(2-(6-Methylpyridin-2-yl)-5,6,7,8-tetrahydro-5,8-methanoimidazo[1,2-a]pyridin-3-yl) quinoline-6-carboxamide] | 0.085 |  | 
Cc1cccc(-c2nc3n(c2-c2ccnc(NC(=O)OC(C)(C)C)c2)C2CCC3C2)n1 (centres unmarked) [Example 31, Tert-butyl (4-(2-(6-methylpyridin-2-yl)-5,6,7,8-tetrahydro-5,8-methanoimidazo[1,2-a]pyridin-3-yl)pyridin-2-yl)carbamate] | 0.055 |  | 
Cc1cccc(-c2nc3n(c2-c2ccnc(N)c2)C2CCC3C2)n1 (centres unmarked) [Example 32, 4-(2-(6-Methylpyridin-2-yl)-5,6,7,8-tetrahydro-5,8-methanoimidazo[1,2-a]pyridin-3-yl)pyridin-2-amine] | 0.009 |  | 0.008
Cc1cccc(-c2nn3c(c2-c2ccnc4ccc(C(N)=O)cc24)C2CCC3CC2)n1 [Example 34, 4-(2-(6-Methylpyridin-2-yl)-4,5,6,7-tetrahydro-4,7-ethanopyrazolo[1,5-a]pyridin-3-yl)quinoline-6-carboxamide] | 0.012 |  | 
Cc1cccc(-c2nn3c(c2-c2ccnc4ccc(C(N)=O)cc24)C2CCC3C2)n1 (centres unmarked) [Example 35, 4-(2-(6-Methylpyridin-2-yl)-4,5,6,7-tetrahydro-4,7-methanopyrazolo[1,5-a]pyridin-3-yl)quinoline-6-carboxamide] | 0.012 |  | 
Cc1cccc(-c2nn3c(c2-c2ccnc(NCCO)c2)C2CCC3CC2)n1 [Example 37, 2-((4-(2-(6-Methylpyridin-2-yl)-4,5,6,7-tetrahydro-4,7-ethanopyrazolo[1,5-a]pyridin-3-yl)pyridin-2-yl)amino)ethanol] |  | 0.061 | 
NC(=O)c1ccc(-c2cc(-c3c(-c4ccc(F)cn4)nc4n3[C@H]3CC[C@@H]4C3)ccn2)cc1 [Example 41-1, 4-(4-((5S,8R)-2-(5-Fluoropyridin-2-yl)-5,6,7,8-tetrahydro-5,8-methanoimidazo[1,2-a]pyridin-3-yl)pyridin-2-yl)benzamide] | 0.028 |  | 
Cc1cccc(-c2nc3n(c2-c2ccnc(-c4cnn(S(C)(=O)=O)c4)c2)C2CCC3C2)n1 (centres unmarked) [Example 43, 2-(6-Methylpyridin-2-yl)-3-(2-(1-(methylsulfonyl)-1H-pyrazol-4-yl)pyridin-4-yl)-5,6,7,8-tetrahydro-5,8-methanoimidazo[1,2-a]pyridine] | 0.021 |  | 0.011
CS(=O)(=O)c1ccc(-c2cc(-c3c(-c4ccccn4)nc4n3[C@H]3CC[C@@H]4C3)ccn2)cc1 [Example 46-1, (5S,8R)-3-(2-(4-(Methylsulfonyl)phenyl)pyridin-4-yl)-2-(pyridin-2-yl)-5,6,7,8-tetrahydro-5,8-methanoimidazo[1,2-a]pyridine] | 0.034 | 0.079 | 
NC(=O)c1nnc2cc(-c3c(-c4ccccn4)nc4n3[C@H]3CC[C@@H]4C3)ccn12 [Example 47-1, 7-((5S,8R)-2-(Pyridin-2-yl)-5,6,7,8-tetrahydro-5,8-methanoimidazo[1,2-a]pyridin-3-yl)-[1,2,4]triazolo[4,3-a]pyridine-3-carboxamide] | 0.039 | 0.053 | 

From patent US10906905B2, “Five-membered heteroaryl ring bridged ring derivative, preparation method therefor and medical use thereof” (Jiangsu Hengrui Medicine Co., Ltd., priority 2016, dated 2021)
